We go through 14 compounds from US9540397B2, “BACE1 inhibitors” (Hoffmann-La Roche Inc., priority 2014, dated 2017).

The IC50 is the concentration that gives 50% inhibition.

The target in one experiment is T1, BACE1 (Homo sapiens, UniProt P56817).
T1 construct: endogenous in cells; host or cells: HEK293 APP cells
The experiment in a line: Cellular Aβ-lowering assay (Abeta 40 AlphaLISA, HEK293 APP cells). The conditions noted are these: 18-20 hrs incubation, Aβ40 in culture supernatant, read-out: BACE1 cell act. Aβ40 IC50. The experiment is classed as cell-based. As for the experimental part:
Cellular Aβ-lowering assay:
The Abeta 40 AlphaLISA Assay can be used. The HEK293 APP cells were seeded in 96 well Microtiter plates in cell culture medium (Iscove's, plus 10% (v/v) fetal bovine serum, penicillin/streptomycin) to about 80% confluency and the compounds were added at a 3× concentration in ⅓ volume of culture medium (final DMSO concentration was kept at 1% v/v). After 18-20 hrs incubation at 37° C. and 5% CO2 in a humidified incubator, the culture supernatants were harvested for the determination of AP 40 concentrations using Perkin-Elmer Human Amyloid beta 1-40 (high specificity) Kit (Cat#AL275C).
In a Perkin-Elmer White Optiplate-384 (Cat#6007290), 2 ul culture supernatants were combined with 2 μl of a 10× AlphaLISA Anti-hAβ Acceptor beads+Biotinylated Antibody Anti-Aβ 1-40 Mix ([…]/5 nM). After 1 hour room temperature incubation, 16 μl of a 1.25× preparation of Streptavidin (SA) Donor beads (25 μg/mL) were added and incubated for 30 minutes in the Dark. Light Emission at 615 nm was then recorded using EnVision-Alpha Reader. Levels of Aβ 40 in the culture supernatants were calculated as percentage of maximum signal (cells treated with 1% DMSO without inhibitor). The IC50 values were calculated using the Excel XLfit software.
In general terms: In Alpha technology, singlet oxygen from a donor bead excites a nearby acceptor bead.

For experiment [1], the system named is Aβ40 in brain of wild-type mice. Put plainly: Lowering of Aβ40 in brain of wild-type mice. It is filed as in vivo. As to conditions: Mus musculus, po; female C57Bl/6J mice, 30 mg/kg per os, 4 h; brain Aβ40 related to the value in the vehicle group; read-out: Aβ40 (wt mice, brain). How it is done: Lowering of Aβ40 in Brain of Wild-Type Mice:
Animals and Housing Conditions.
Animals were maintained in a 12/12 h light/dark cycle, with lights starting at 6 a.m., and experiments were conducted during the light phase. Animal housing and experimental procedures were in line with ethical and legal guidelines and were authorized by local veterinary authorities.
Experiment. Female C57Bl/6J mice were treated with a dose of 30 mg/kg of the compounds, 3-4 animals per treatment group. The test compound was dissolved in 5% EtOH, 10% Solutol, and was applied per os at 10 mL/kg. After 4 h, the animals were sacrificed and brain and plasma were collected. The brain was cut into halves and immediately frozen on dry ice. Brain was used for measurement of Aβ40 and plasma was used for determination of compound exposure. […] Brain tissue was homogenized in 2% DEA buffer in a Roche MagnaLyser (20″, 4000 rpm) and subsequently centrifuged for 1 h at 100000 g. DEA was reduced to 0.2% in 50 mM NaCl and one-half of the DEA lysate was passed over an Oasis Solid phase extraction plate (Waters; cat. no. 186000679), which had been activated with MeOH and equilibrated in dH2O (1 mL each). After washes in 10% and 30% MeOH (1 mL each), the Aβ-peptides were eluted in 0.8 mL of 2% NH4OH in 90% MeOH. The eluate was dried over a N2 flow, and the dried sample was reconstituted in 30 μL of AlphaLISA assay buffer. Aβ40 was determined by an AlphaLISA assay (Perkin-Elmer). In a white 96-well, half area microplate (Perkin-Elmer cat. no. 6005561), 20 μL of the reconstituted sample were mixed with 5 μL of biotinylated BAP-24 (specific for C-terminus of Aβ40) (Brockhaus, M.; Grunberg, J.; Rohrig, S.; Loetscher, H.; Wittenburg, N.; Baumeister, R.; Jacobsen, H.; Haass, C. Caspasemediated cleavage is not required for the activity of presenilins in amyloidogenesis and NOTCH signaling. NeuroReport 1998, 9, 1481-1486.) stock=4.4 mg/mL, f.c.5.5 μg/mL), and 5 μL 252Q6 acceptor beads (252Q6 antibody, Invitrogen AMB0062) had been previously conjugated with AlphaLISA Acceptor beads (Perkin-Elmer cat. no. 6772002); final dilution 1:500). The mix was incubated for 1 h at RT in the dark. Then 20 μL of Streptavin-coated Donor Beads (Perkin-Elmer cat. no. 6760002, final dilution 1:125) were added and this final mix was incubated in the dark for another 30 min at RT before RFU was measured in an AlphaScreen Reader (Perkin-Elmer Envision 2104). The value obtained for Aβ40 in the treated animals was related to the value in the vehicle group and is given in %. Alternatively a commercial ELISA was used for Aβ40 determination (Wako ELISA: (“Human/Rat β Amyloid (40) ELISA kit Wako II”; cat nr. 294-64701) following the manufacture's instruction. Also here the Aβ-lowering efficacy was calculated as percentage of the vehicle group.

T1 sequence (P56817 46-501): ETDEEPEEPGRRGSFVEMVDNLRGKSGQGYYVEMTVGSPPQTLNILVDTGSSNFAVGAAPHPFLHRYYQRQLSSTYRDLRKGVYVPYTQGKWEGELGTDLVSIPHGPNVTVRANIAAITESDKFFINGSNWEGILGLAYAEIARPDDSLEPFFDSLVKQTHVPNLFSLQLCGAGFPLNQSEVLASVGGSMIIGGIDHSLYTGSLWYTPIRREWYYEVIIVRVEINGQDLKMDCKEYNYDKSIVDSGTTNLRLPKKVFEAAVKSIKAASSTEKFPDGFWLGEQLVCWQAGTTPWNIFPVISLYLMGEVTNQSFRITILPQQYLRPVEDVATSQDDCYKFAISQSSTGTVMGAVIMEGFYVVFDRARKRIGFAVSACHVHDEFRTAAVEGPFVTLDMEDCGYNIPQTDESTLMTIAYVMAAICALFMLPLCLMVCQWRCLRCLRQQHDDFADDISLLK

Take `Cc1cc(Cl)cnc1C(=O)Nc1ccc(F)c([C@@]2(C)N=C(N)C(C)(C)[S@@]3(=O)=NCC[C@@H]23)n1` [Example 12AB, N-(6-((3aS,4R,8R)-6-amino-4,7,7-trimethyl-8-oxido-3,3a,4,7-tetrahydro-2H-isothiazolo[1,5-a][1,4]thiazin-4-yl)-5-fluoropyridin-2-yl)-5-chloro-3-methylpicolinamide]: the IC50 on BACE1 came out at 1.3 nM. For the same compound, in experiment [1], the response vs control in vivo at 30 mg/kg was determined as 38%.
As to `CC1(C)C(N)=N[C@](C)(c2nc(NC(=O)c3ccc(C#N)cn3)ccc2F)[C@H]2CC(F)(F)CN=[S@@]21=O` [Example 34AA, N-(6-((4aR,5R,9R)-7-amino-3,3-difluoro-5,8,8-trimethyl-9-oxido-2,3,4,4a,5,8-hexahydro-[1,4]thiazino[2,1-f][1,2]thiazin-5-yl)-5-fluoropyridin-2-yl)-5-cyanopicolinamide], the IC50 on BACE1 was 9.8 nM. Further, in experiment [1], the response vs control in vivo at 30 mg/kg turned out to be 113%.
Regarding `CC1(C)C(N)=N[C@](C)(c2nc(NC(=O)c3ncc(C#N)cc3Cl)ccc2F)[C@@H]2CCN=[S@@]21=O` [Example 25AB, N-(6-((3aS,4R,8R)-6-amino-4,7,7-trimethyl-8-oxido-3,3a,4,7-tetrahydro-2H-isothiazolo[1,5-a][1,4]thiazin-4-yl)-5-fluoropyridin-2-yl)-3-chloro-5-cyanopicolinamide], the IC50 on BACE1 was 0.5 nM. Further, the response vs control in vivo at 30 mg/kg in experiment [1] came to 56%.
`CC1(C)C(N)=N[C@](C)(c2nc(NC(=O)c3ncc(OC(F)F)cc3Cl)ccc2F)[C@H]2CC3(CC3)CN=[S@@]21=O` [Example 50AA, N-(6-((4aR,5R,9R)-7-amino-5,8,8-trimethyl-9-oxido-4,4a,5,8-tetrahydro-2H-spiro[[1,4]thiazino[2,1-f][1,2]thiazine-3,1′-cyclopropan]-5-yl)-5-fluoropyridin-2-yl)-3-chloro-5-(difluoromethoxy)picolinamide]: on BACE1, the half-inhibitory concentration (IC50) stood at 15.9 nM. In addition, in experiment [1], the response vs control in vivo at 30 mg/kg came out at 117%.
The corresponding values for `Cc1cc(C#N)cnc1C(=O)Nc1ccc(F)c([C@@]2(C)N=C(N)C(C)(C)[S@@]3(=O)=NCCC[C@@H]23)n1` [Example 1AB, N-(6-((4aS,5R,9R)-7-amino-5,8,8-trimethyl-9-oxido-2,3,4,4a,5,8-hexahydro-[1,4]thiazino[2,1-f][1,2]thiazin-5-yl)-5-fluoropyridin-2-yl)-5-cyano-3-methylpicolinamide] are 2.3 nM and 79%.
On the same counts, the results for `CC1(C)C(N)=N[C@](C)(c2nc(NC(=O)c3ccc(Cl)cn3)ccc2F)[C@H]2CC(F)(F)CN=[S@@]21=O` [Example 43AA, N-(6-((4aR,5R,9R)-7-amino-3,3-difluoro-5,8,8-trimethyl-9-oxido-2,3,4,4a,5,8-hexahydro-[1,4]thiazino[2,1-f][1,2]thiazin-5-yl)-5-fluoropyridin-2-yl)-5-chloropicolinamide] are 56 nM and 80%.
On the same counts, the results for `CC1(C)C(N)=N[C@](C)(c2nc(NC(=O)c3cnc(OC(F)F)cn3)ccc2F)[C@@H]2CCN=[S@@]21=O` [Example 26AB, N-(6-((3aS,4R,8R)-6-amino-4,7,7-trimethyl-8-oxido-3,3a,4,7-tetrahydro-2H-isothiazolo[1,5-a][1,4]thiazin-4-yl)-5-fluoropyridin-2-yl)-5-(difluoromethoxy)pyrazine-2-carboxamide] are 7.7 nM and 82%.
Take `CC1(C)C(N)=N[C@](C)(c2nc(NC(=O)c3ccc(OCC(F)(F)C(F)F)cn3)ccc2F)[C@H]2CCCN=[S@@]21=O` [Example 8AA, N-(6-((4aR,5R,9R)-7-amino-5,8,8-trimethyl-9-oxido-2,3,4,4a,5,8-hexahydro-[1,4]thiazino[2,1-f][1,2]thiazin-5-yl)-5-fluoropyridin-2-yl)-5-(2,2,3,3-tetrafluoropropoxy)picolinamide]: the IC50 at BACE1 worked out at 35.4 nM. Moreover, the response vs control in vivo at 30 mg/kg in experiment [1] worked out at 61%.
The corresponding values for `CC1(C)C(N)=N[C@](C)(c2nc(NC(=O)c3ncc(C#N)cc3Cl)ccc2F)[C@H]2CCN=[S@]21=O` [Example 25BA, N-(6-((3aR,4R,8S)-6-amino-4,7,7-trimethyl-8-oxido-3,3a,4,7-tetrahydro-2H-isothiazolo[1,5-a][1,4]thiazin-4-yl)-5-fluoropyridin-2-yl)-3-chloro-5-cyanopicolinamide] are 15.5 nM and 117%.
`COc1cnc(C(=O)Nc2ccc(F)c([C@@]3(C)N=C(N)C(C)(C)[S@@]4(=O)=NCCC[C@@H]34)n2)cn1` [Example 2AB, N-(6-((4aS,5R,9R)-7-amino-5,8,8-trimethyl-9-oxido-2,3,4,4a,5,8-hexahydro-[1,4]thiazino[2,1-f][1,2]thiazin-5-yl)-5-fluoropyridin-2-yl)-5-methoxypyrazine-2-carboxamide]: at BACE1, the IC50 was found to be 18.7 nM. In experiment [1], the response vs control in vivo at 30 mg/kg is 92%.
On the same counts, the results for `Cc1cc(C#N)cnc1C(=O)Nc1ccc(F)c([C@@]2(C)N=C(N)C(C)(C)[S@]3(=O)=NCC[C@H]23)n1` [Example 9BA, N-(6-((3aR,4R,8S)-6-amino-4,7,7-trimethyl-8-oxido-3,3a,4,7-tetrahydro-2H-isothiazolo[1,5-a][1,4]thiazin-4-yl)-5-fluoropyridin-2-yl)-5-cyano-3-methylpicolinamide] are 14.9 nM and 86%.
The corresponding values for `Cc1cc(C#N)cnc1C(=O)Nc1ccc(F)c([C@@]2(C)N=C(N)C(C)(C)[S@]3(=O)=NCCC[C@H]23)n1` [Example 1BA, N-(6-((4aR,5R,9S)-7-amino-5,8,8-trimethyl-9-oxido-2,3,4,4a,5,8-hexahydro-[1,4]thiazino[2,1-f][1,2]thiazin-5-yl)-5-fluoropyridin-2-yl)-5-cyano-3-methylpicolinamide] are 0.5 nM and 95%.
On the same counts, the results for `CC1(C)C(N)=N[C@](C)(c2nc(NC(=O)c3ncc(OC(F)F)cc3Cl)ccc2F)[C@H]2CC(F)(F)CN=[S@@]21=O` [Example 45AA, N-(6-((4aR,5R,9R)-7-amino-3,3-difluoro-5,8,8-trimethyl-9-oxido-2,3,4,4a,5,8-hexahydro-[1,4]thiazino[2,1-f][1,2]thiazin-5-yl)-5-fluoropyridin-2-yl)-3-chloro-5-(difluoromethoxy)-picolinamide] are 26.6 nM and 85%.
Turning to `Cc1cc(F)cnc1C(=O)Nc1ccc(F)c([C@@]2(C)N=C(N)C(C)(C)[S@]3(=O)=NCC[C@H]23)n1` [Example 10BA, N-(6-((3aR,4R,8S)-6-amino-4,7,7-trimethyl-8-oxido-3,3a,4,7-tetrahydro-2H-isothiazolo[1,5-a][1,4]thiazin-4-yl)-5-fluoropyridin-2-yl)-5-fluoro-3-methylpicolinamide], the IC50 on BACE1 came out at 420 nM.
